ChEMBL document CHEMBL1129766, “SAR of 2-benzyl-4-aminopiperidines: CGP 49823, an orally and centrally active non-peptide NK1 antagonist” (Bioorg Med Chem Lett, 1996)
Active and inactive are the calls of the source. The rule behind the calls is not given here.

How the values were obtained:
Gerbillinae [1] = assay: (§1) Tested for inhibition of thumping behavior in gerbils induced by iv administration of SP-methyl ester 2 hours after peroral administration of 30 mg/kg of the compound; assay type: functional; conditions: route oral
[2] = target: T1, Neuromedin-K receptor (Homo sapiens) (UniProt P29371); conditions: Gerbillinae
T1 sequence (whole entry): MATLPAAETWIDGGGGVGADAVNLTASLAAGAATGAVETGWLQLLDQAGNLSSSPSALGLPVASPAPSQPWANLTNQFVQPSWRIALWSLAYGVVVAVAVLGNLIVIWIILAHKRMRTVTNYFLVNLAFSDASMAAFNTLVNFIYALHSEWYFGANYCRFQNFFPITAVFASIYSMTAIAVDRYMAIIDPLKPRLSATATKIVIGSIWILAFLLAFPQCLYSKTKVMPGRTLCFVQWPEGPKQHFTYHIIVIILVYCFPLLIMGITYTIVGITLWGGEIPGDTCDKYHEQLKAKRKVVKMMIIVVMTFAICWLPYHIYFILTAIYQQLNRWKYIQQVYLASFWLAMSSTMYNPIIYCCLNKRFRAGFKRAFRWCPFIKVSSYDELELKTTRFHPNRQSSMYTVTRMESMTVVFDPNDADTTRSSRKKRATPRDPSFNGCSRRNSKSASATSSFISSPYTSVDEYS

U373 MG = assay: Compound was tested for inhibition of substance P induced phosphatidyl inositol turnover in human U-373 cells; assay type: functional, cell-based, U-373MG ATCC
[3] = target: T2, Substance-K receptor (Bos taurus) (UniProt P05363); assay: Compound was tested for inhibition of [125I]NKA radioligand binding to NK2 receptor from bovine bladder at 1 uM
T2 sequence (whole entry): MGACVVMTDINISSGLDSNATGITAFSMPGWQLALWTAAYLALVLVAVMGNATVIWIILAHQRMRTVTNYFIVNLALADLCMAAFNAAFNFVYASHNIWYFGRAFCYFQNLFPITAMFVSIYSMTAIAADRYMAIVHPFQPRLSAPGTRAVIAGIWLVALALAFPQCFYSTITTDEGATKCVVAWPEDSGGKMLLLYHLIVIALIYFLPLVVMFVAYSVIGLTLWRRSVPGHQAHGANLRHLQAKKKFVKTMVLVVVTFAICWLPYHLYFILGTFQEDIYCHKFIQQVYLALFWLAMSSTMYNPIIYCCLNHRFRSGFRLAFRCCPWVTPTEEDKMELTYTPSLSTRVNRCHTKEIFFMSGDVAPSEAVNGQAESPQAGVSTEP

Gerbillinae [4] = assay: Tested for inhibition of thumping behavior in gerbils induced by iv administration of SP-methyl ester 2 hours after intraperitoneal administration of 60 mg/kg of the compound; assay type: functional
Substance-K receptor = target: T3, Substance-K receptor (Bos taurus, UniProt P05363); assay: (§2) Compound was tested for inhibition of [125I]NKA radioligand binding to NK2 receptor from bovine bladder
T3 sequence (P05363 whole entry): T2 sequence (whole entry)

Gerbillinae [5] = assay: Compound was tested for inhibition of thumping behavior in gerbils induced by iv administration of SP-methyl ester 2 hours after peroral administration of 30 mg/kg of the compound.; assay type: functional; conditions: route oral
Gerbillinae [6] = assay: as §1; assay type: functional, organism-based; set-up: dose 30 mg/kg, route oral
[7] = target: T2, Substance-K receptor (Bos taurus); assay: as §2; conditions: concentration not given here
Neuromedin-K receptor = target: T4, Neuromedin-K receptor (Homo sapiens, UniProt P29371); assay: Compound was tested for inhibition of [125I]eledoisin radioligand binding to NK3 receptor from gerbil cortex; NA means no activity; set-up: species or system Gerbillinae
T4 sequence (P29371 whole entry): T1 sequence (whole entry)

SMILES: Cc1cc(C)cc(C(=O)N2CC[C@@H](NCc3ccnc4ccccc34)C[C@@H]2Cc2ccccc2)c1
- inhibition in vivo at 30 mg/kg (Gerbillinae [1]): 54%
- NA [2]: inactive
- IC50 (U373 MG): 150 nM
- inhibition [3]: 5%

SMILES: Cc1cc(C)cc(C(=O)N2CC[C@@H](NCc3ccnc4ccccc34)C[C@H]2Cc2ccccc2)c1
- inhibition in vivo at 60 mg/kg (Gerbillinae [4]): 20%

SMILES: O=C(N[C@H]1CCN(C(=O)c2cc(Cl)cc(Cl)c2)[C@H](Cc2ccccc2)C1)c1ccnc2ccccc12
- IC50 (Substance-K receptor): 4.5 µM
- IC50 (U373 MG): 24 nM
- inhibition in vivo at 30 mg/kg (Gerbillinae [5]): 66%

SMILES: Cc1cc(C)cc(C(=O)N2CC[C@H](NCc3ccnc4ccccc34)C[C@H]2Cc2ccccc2)c1
- IC50 (Substance-K receptor): 2.79 µM
- inhibition in vivo at 30 mg/kg (Gerbillinae [1]): 34%
- IC50 (U373 MG): 12 nM

SMILES: Cc1cc(C)cc(C(=O)N2CC[C@H](NCc3cnc4ccccc4c3)C[C@H]2Cc2ccccc2)c1
- inhibition (Gerbillinae [6]): 21%
- inhibition [7]: 22%
- IC50 (U373 MG): 210 nM

SMILES: COc1ccccc1CN[C@H]1C2CCN(CC2)[C@H]1C(c1ccccc1)c1ccccc1 [CP-96345]
- inhibition in vivo at 30 mg/kg (Gerbillinae [1]): 61%
- IC50 (Neuromedin-K receptor): Not Active
- IC50 (U373 MG): 9 nM
- inhibition [3]: 24%

SMILES: O=C(N[C@H]1CCN(C(=O)c2cc(C(F)(F)F)cc(C(F)(F)F)c2)[C@H](Cc2ccccc2)C1)c1cc(O)nc2ccccc12
- inhibition [7]: 28%
- inhibition in vivo at 30 mg/kg (Gerbillinae [5]): 24%
